Measurements as given in patent publication US20190015423A1, “REGULATION OF GENE EXPRESSION BY MODULATING PRIMARY CILIA LENGTH” (THE TRUSTEES OF COLUMBIA UNIVERSITY IN THE CITY OF NEW YORK, priority 2016, published 2019).
Entries after “also recorded” stand apart in the source; their conditions may differ. Where a name gives a salt, the structure may show the parent alone.

Experiments:
MLO-Y4 osteocytes = assay: mRNA expression (AC6, IFT88) by quantitative real-time PCR, no flow; assay type: cell-based; conditions: for IFT88 mRNA expression in untransfected cells: fenoldopam
MC3T3 osteoblasts = assay: Flow-induced paracrine signaling: conditioned media of treated osteocytes on osteoblasts (OPN mRNA); assay type: cell-based; conditions: osteocytes treated with fenoldopam 10 μM 16 hours; 12 hrs flow; osteoblasts cultured 24 hours
[1] = μCT analysis of non-loaded ulnae; assay type: in vivo, mice; conditions: for μCT: normal bone properties / microarchitecture (in words): 7 days, non-loaded ulnar midshaft
Procedure: Non-loaded ulnae were used for μCT analysis. Samples were imaged with a Scanco ViaCT 80 at 10.5 μm isotropic resolution. Images were processed using a Gaussian filter and global threshold to segment bone volumes. Ulnar midshafts were imaged and used to assess cortical bone, while the proximal epiphysis was used to examine ulnar trabecular bone. Cortical bone analysis was performed to determine total area, cortical area, marrow area, bone volume fraction (BV/TV), cortical thickness, moment of inertia (Imax and Imin), and bone mineral density (BMD). Trabecular analyses included BV/TV, connectivity density, trabecular number, trabecular thickness, trabecular spacing, and BMD.

[2] = tested on: Ovariectomized (OVX) mice; assay: Load-induced bone formation in ovariectomized (OVX) osteoporotic mice; assay type: in vivo; conditions: fenoldopam 20 mg/kg 7 days, compressive ulnar load
Procedure: On the final three days of drug or control injection, animals were also subjected to compressive ulnar load at a peak load of 3 N using a 2 Hz sine wave for 120 cycles, as previously described ([…]. et al. PLoS One 7, (2012); Lee, K. L. et al. FASEB J. 28, 1157-1165 (2014)). Contralateral limbs served as a non-loaded control. 2 days following load, mice were treated with 10 mg/kg calcein (Sigma), and 4 days later 70 mg/kg alizarin (Sigma), with mice being sacrificed 6 days later. Dynamic histomorphometry was performed as previously described, measuring the amount and separation of calcein and alizarin labels to quantify mineralizing surface (rMS/BS), mineral apposition rate (rMAR), and bone formation rate (rBFR/BS) relative to non-loaded controls ([…]. et al. PLoS One 7, (2012); Lee, K. L. et al. FASEB J. 28, 1157-1165 (2014)). Left and right ulnae were dissected and preserved in ethanol. Samples were then infiltrated with methyl methacrylate, and embedded in methyl methacrylate and benzoyl peroxide. Transverse sections of the ulnar midshaft were imaged on a laser scanning confocal microscope (Olympus Fluoview FV1000). Measurements of outer bone perimeter (OP), single label perimeter (SL), double label perimeter (DL), and double label area (DA) were made in ImageJ. The mineralizing surface relative to outer bone surface (MS/BS), mineral apposition rate (MAR), and bone formation rate (BFS/BS) were calculated as: Relative measurements-rMS/BS, rMAR, rBFR/BS-were determined by subtracting non-loaded from loaded ulnae to display differences due to mechanical load. Ovariectomized (OVX) and Sham animals were purchased directly from Jackson Laboratories, with surgery performed at 12 weeks old. […] Dynamic histomorphometry was only performed on OVX animals, while Sham animals were used to confirm osteoporotic phenotype based on μCT analysis.

[3] = fenoldopam 100 mg/kg, rat model (Dalmas et al. 2008); cited from earlier work
[4] = fenoldopam treatment of osteocytes
[5] = Table 1, ulnar midshaft, Female

Oc1ccc(C2CNCCc3c2cc(O)c(O)c3Cl)cc1 (centres unmarked) [fenoldopam, Fenoldopam mesylate]
IFT88 mRNA expression in untransfected cells (MLO-Y4 osteocytes): no significant effect
AC6 mRNA expression (in words) (MLO-Y4 osteocytes; [4]): significantly increases
increase in AC6 mRNA expression (MLO-Y4 osteocytes; [4]): 20%±8%
IFT88 mRNA expression in untransfected cells (MLO-Y4 osteocytes; listed as Fenoldopam): did not alter
osteoblast osteogenic gene (osteopontin, OPN) expression after conditioned media from flow-stimulated osteocytes (MC3T3 osteoblasts): increased; also recorded: significantly enhanced
Cortical area [1, 5]: 0.310 ± 0.003 mm^2
Cortical thickness [1, 5]: 0.173 ± 0.006 mm
Imax [1, 5]: 0.029 ± 0.001 mm^4
Imin [1, 5]: 0.005 ± 0.000 mm^4
Porosity [1, 5]: 0.131 ± 0.006%
Total area ([1]; Table 1, ulnar midshaft, Female, fenoldopam 20 mg/kg 7 days): 0.357 ± 0.005 mm^2
Cortical area ([1]; Table 1, ulnar midshaft, Male): 0.320 ± 0.023 mm^2
Cortical thickness ([1]; Table 1, ulnar midshaft, Male): 0.169 ± 0.009 mm
Imax ([1]; Table 1, ulnar midshaft, Male): 0.033 ± 0.007 mm^4
Imin ([1]; Table 1, ulnar midshaft, Male): 0.004 ± 0.001 mm^4
Porosity ([1]; Table 1, ulnar midshaft, Male): 0.134 ± 0.003%
Total area ([1]; Table 1, ulnar midshaft, Male, fenoldopam 20 mg/kg 7 days): 0.370 ± 0.027 mm^2
Cortical area ([1]; Table 5, cortical, Female): 0.310 ± 0.003 mm^2
Cortical thickness ([1]; Table 5, cortical, Female): 0.173 ± 0.006 mm
Imax ([1]; Table 5, cortical, Female): 0.029 ± 0.001 mm^4
Imin ([1]; Table 5, cortical, Female): 0.005 ± 0.000 mm^4
Cortical area ([1]; Table 5, cortical, Male): 0.320 ± 0.009 mm^2
Cortical thickness ([1]; Table 5, cortical, Male): 0.169 ± 0.004 mm
Imax ([1]; Table 5, cortical, Male): 0.033 ± 0.003 mm^4
Imin ([1]; Table 5, cortical, Male): 0.004 ± 0.001 mm^4
Marrow area ([1]; Table 5, cortical, Male): 0.049 ± 0.001 mm^2
Total area ([1]; Table 5, ulnar midshaft - cortical, non-loaded, Female, 20 mg/kg fenoldopam): 0.357 ± 0.005 mm^2
Total area ([1]; Table 5, ulnar midshaft - cortical, non-loaded, Male, 20 mg/kg fenoldopam): 0.370 ± 0.010 mm^2
μCT: normal bone properties / microarchitecture (in words) ([1]; fenoldopam 20 mg/kg): no change; also recorded: no difference
μCT: normal bone properties / microarchitecture (in words) ([1]; fenoldopam 20 mg/kg, listed as Fenoldopam): did not result in any change
μCT: normal cortical bone properties including thickness, area, and moment of inertia ([1]; fenoldopam 20 mg/kg, preliminary study, data not shown): no change
bone formation rate (rBFR/BS) compared to vehicle control [2]: increased
mineral apposition rate (rMAR) compared to vehicle control [2]: increased
mineralizing surface (rMS/BS) compared to vehicle control [2]: increased
vasotoxicity [3]: vasotoxic
